Patent publication US12186283B2, “Bismuth-thiol compositions and methods of use” (Microbion Corporation, priority 2018, dated 2025)
Converted amounts (≈) assume the structure as drawn. “And” between values parts separate entries of the source, which are not always exact repeats. Identical values can stand only once. Like-named read-outs stand apart in the source and are kept apart here.

Legend:
[1] = tested on: S. pneumoniae (pneumococci); assay: Broth microdilution MIC (Example 11); type: cell-based, Streptococcus pneumoniae; settings: pneumococci incl. multi-drug resistant
N. gonorrhoeae = assay: Agar dilution MIC (Example 11); type: cell-based, Neisseria gonorrhoeae; settings: QC isolate, ciprofloxacin-resistant and ceftriaxone non-susceptible isolates
Enterobacteriaceae = assay: Broth microdilution MIC (Example 11), group statement; type: cell-based; settings: ATCC QC E. coli, ESBL-, KPC- and NDM-1-positive isolates
Pseudomonas aeruginosa [2] = assay: Broth microdilution MIC (Example 11); type: cell-based; settings: P. aeruginosa MMX 103 (ATCC 27853); QC
Aspergillus spp. = assay: Broth microdilution MIC/MEC, mold (Example 13); type: cell-based; settings: for MEC (minimum effective concentration): read-out: MEC at 48 hr (MIC0 not observed)
[3] = tested on: Staphylococcus aureus (MRSA); assay: Broth microdilution MIC (Example 11); type: cell-based; settings: MRSA, LevR, CipR, EryR, OxR
[4] = tested on: M. abscessus / MABSC biofilms; type: cell-based, Mycobacterium abscessus complex; settings: AMT0130-8, MABSC CF-isolate
Candida spp. = assay: Broth microdilution MIC, yeast (Example 13), group statement and QC; type: cell-based; settings: C. parapsilosis ATCC 22019, footnote b not given
[5] = tested on: anaerobes (Bacteroides fragilis and Clostridium difficile); assay: Agar dilution MIC (Example 11), group statement; type: cell-based; settings: B. fragilis and C. difficile QC isolates, C. difficile ribotypes incl. 027
Protocol: The test agents were stored at room temperature until assayed. All test agents were suspended and diluted in 100% dimethylsulfoxide (DMSO), and were ultimately tested at a final concentration of 0.06-64 μg/mL.
The susceptibility of anaerobic bacteria was determined by agar dilution using Brucella Agar (BD/BBL; Lot No. 5237692) supplemented with 5 μg/mL hemin (Sigma, St. Louis, MO; Lot No. 108K1088), 1 μg/mL Vitamin K1 and 5% (v/v) laked sheep blood (Cleveland Scientific, Bath, OH; Lot No. 322799).
MIC values for anaerobic bacteria were determined using a reference agar dilution method as described by CLSI (6). Organisms were grown at 35° C. in the Bactron II Anaerobic Chamber (Shel Lab, Cornelius, OR) for approximately 48 hr prior to the assay. Drug dilutions and drug-supplemented agar plates were prepared manually per CLSI (6). The plates were allowed to stand at room temperature for 1 hr to allow the agar surface to dry and pre-reduced for approximately 1 hr in the anaerobe chamber prior to inoculation. Each isolate was suspended to the equivalent of a 0.5 McFarland standard in Brucella broth using a turbidity meter (Dade Behring MicroScan, West Sacramento, CA). Each bacterial cell suspension was then diluted 1:10 in Brucella broth and transferred to wells in a stainless steel replicator block which was used to inoculate the test plates. […] The MIC was read per CLSI guidelines (6).

S. aureus ATCC 29213 = settings: CLSI established QC range; cited from earlier work
E. coli ATCC 25922 = settings: control strain ATCC 25922 E. coli; per CLSI M100-S24 or provided by Microbion; cited from earlier work
[6] = Aerosol particle size distribution of nebulized suspensions (cascade impactor / APS)
Klebsiella pneumoniae = settings: K. pneumoniae ATCC BAA-1705, QC organism; cited from earlier work
[7] = tested on: Burkholderia cepacia complex; assay: Checkerboard FIC assay, BisEDT with CF agents (Example 10); type: cell-based, Burkholderia spp.; settings: agent alone, as observed during FIC testing
Pseudomonas aeruginosa [8] = assay: Broth microdilution MIC (Example 12)

CC(S)C(C)S.[Bi] (stereo not shown) [BisBDT, bismuth-2,3-butanedithiol]
MIC values (range across isolates) [1]: 0.5 to 8 µg/mL | MIC values (range across isolates) (N. gonorrhoeae): 0.06 to 0.25 µg/mL | MIC values (range across isolates) (Enterobacteriaceae): 0.5 to 2 µg/mL | MIC (Pseudomonas aeruginosa [2]): 1 µg/mL | MIC (Aspergillus spp.; 24 h, A. flavus ATCC 22546, 24 hr, read-out: MIC0 24 hr (complete inhibition)): 1 µg/mL | MIC (Aspergillus spp.; 24 h, A. flavus ATCC 204304, 24 hr, read-out: MIC0 24 hr (complete inhibition)): 4 µg/mL | MIC (Aspergillus spp.; 24 h, A. flavus MMX 7935, 24 hr, read-out: MIC0 24 hr (complete inhibition)): 8 µg/mL | MIC (Aspergillus spp.; 24 h, A. fumigatus ATCC 204305, 24 hr, read-out: MIC0 24 hr (complete inhibition)): 8 µg/mL | MIC (Aspergillus spp.; 24 h, A. fumigatus ATCC MYA-3626, 24 hr, read-out: MIC0 24 hr (complete inhibition)): 2 µg/mL | MIC (Aspergillus spp.; 24 h, A. fumigatus MMX 5934, 24 hr, read-out: MIC0 24 hr (complete inhibition)): 2 µg/mL | MIC (Aspergillus spp.; 24 h, A. fumigatus MMX 5939, 24 hr, read-out: MIC0 24 hr (complete inhibition)): 2 µg/mL | MIC (Aspergillus spp.; 24 h, read-out: MIC0 24 hr (complete inhibition), A. terreus MMX 8229, 24 hr): 0.25 µg/mL | MIC (Aspergillus spp.; 48 h, A. flavus ATCC 22546, 48 hr, read-out: MIC0 48 hr (complete inhibition)): 2 µg/mL | MEC (minimum effective concentration) (Aspergillus spp.; 48 h, A. flavus ATCC 204304, 48 hr): 4 µg/mL | MIC (Aspergillus spp.; 48 h, A. flavus MMX 7935, 48 hr, read-out: MIC0 48 hr (complete inhibition)): 8 µg/mL | MEC (minimum effective concentration) (Aspergillus spp.; 48 h, A. fumigatus ATCC 204305, 48 hr): 4 µg/mL | MIC (Aspergillus spp.; 48 h, A. fumigatus ATCC MYA-3626, 48 hr, read-out: MIC0 48 hr (complete inhibition)): 4 µg/mL | MEC (minimum effective concentration) (Aspergillus spp.; 48 h, A. fumigatus MMX 5934, 48 hr): 4 µg/mL | MEC (minimum effective concentration) (Aspergillus spp.; 48 h, A. fumigatus MMX 5939, 48 hr): 4 µg/mL | MIC (Aspergillus spp.; 48 h, A. terreus MMX 8229, 48 hr, read-out: MIC0 48 hr (complete inhibition)): 1 µg/mL | MIC 24 hr (Aspergillus spp.; A. flavus ATCC 204304 (QC, Table 110), 24 hr): 4 µg/mL | MIC 48 hr, marked with footnote c (Aspergillus spp.; A. flavus ATCC 204304 (QC, Table 110), 48 hr, footnote c not given, probably MEC): 4^c | MIC 24 hr (Aspergillus spp.; A. fumigatus ATCC MYA-3626 (QC, Table 110), 24 hr): 2 µg/mL | MIC 48 hr (Aspergillus spp.; A. fumigatus ATCC MYA-3626 (QC, Table 110), 48 hr): 4 µg/mL | MIC (Aspergillus spp.; read-out: MIC0 48 hr (complete inhibition)): 2 µg/mL | MIC ([3]; S. aureus MMX 5373, CCR): ≤0.06 µg/mL | MIC ([3]; S. aureus MMX 6311, CCR): ≤0.06 µg/mL | MIC ([3]; S. aureus MMX 9204): ≤0.06 µg/mL | MIC ([3]; S. aureus MMX 9205, CCR): ≤0.06 µg/mL | reduction in biofilm cell viability [4]: only very modest reductions in biofilm cell viability | MIC 24 hr, second value of the pair x/y (Candida spp.; 24 hr): 2 | MIC 48 hr, second value of the pair x/y (Candida spp.; 48 hr): 4 | MIC values (range across isolates) [5]: 1 to 4 µg/mL

C1C[S][Bi]([S]CC[S][Bi]2[S]CC[S]2)[S]1 [BisEDT, bismuth-1,2-ethanedithiol]
QC Range 24 hr (S. aureus ATCC 29213): 0.12-1 | Expected MIC: acceptable range (E. coli ATCC 25922): 0.5 to 2 µg/mL | Expected MIC: goal (E. coli ATCC 25922): 1 µg/mL | Particle Size (GSD) ([6]; BisEDT Lot # ED268-1-11-01, formulation 25 mg/mL, APS): 2.98 (1.8) μm | Particle Size (GSD) ([6]; BisEDT Lot # ED268-1-11-01, formulation 50 mg/mL, APS): 2.83 (1.9) μm | Particle Size (GSD) ([6]; BisEDT Lot # ED268-1-11-01, formulation 75 mg/mL, APS): 3.16 (1.70) μm | Particle Size (GSD) ([6]; BisEDT Lot # ED268-1-11-01, formulation 100 mg/mL, APS): 3.53 (1.71) μm | Particle Size (GSD) ([6]; BisEDT Lot # ED268-1-11-01, formulation 100* mg/mL (asterisk not explained), APS): 3.60 (1.71) μm | Particle Size (GSD) ([6]; BisEDT Lot # ED268-1-11-01 suspension, formulation 1 mg/mL, PARI LC PLUS nebulizer, APS): 1.65 (1.6) μm | Particle Size (GSD) ([6]; BisEDT Lot # XL-47-125, 300 mOsmol/kg vehicle, formulation 10 mg/mL): 1.61 (1.65) μm | Particle Size (GSD) ([6]; BisEDT Lot # XL-47-125, 300 mOsmol/kg vehicle, formulation 50 mg/mL): 2.79 (1.69) μm | Particle Size (GSD) ([6]; BisEDT Lot # XL-47-125, 300 mOsmol/kg vehicle, formulation 100 mg/mL (two tests)): 2.90 (1.67) μm and 2.60 (1.65) μm | MMAD ([6]; exposure aerosols of the rat efficacy study, In-Tox Mercer Impactor): 1.54 μm

C[C@@H](O)[C@H]1C(=O)N2C(C(=O)O)=C(S[C@@H]3CN[C@H](C(=O)N(C)C)C3)[C@H](C)[C@H]12 [MEM]
MIC, QC range (Klebsiella pneumoniae): (8-64) μg/mL | MIC ([7]; B. cenocepacia isolate 0548): 4 µg/mL | MIC ([7]; B. cenocepacia isolate 0813): 2 µg/mL | MIC ([7]; B. cepacia isolate 0546): 4 µg/mL | MIC ([7]; B. cepacia isolate 1793): 4 µg/mL | MIC ([7]; B. multivorans isolate 1795): 4 µg/mL | MIC (Pseudomonas aeruginosa [8]; P. aeruginosa ATCC 27853, QC organism): 0.25 µg/mL (≈ 0.652 µM) | MIC (Pseudomonas aeruginosa [8]; Pseudomonas aeruginosa CDC 230, VIM/OXA): >8 µg/mL | MIC (Pseudomonas aeruginosa [8]; Pseudomonas aeruginosa CDC 231, KPC/OXA): >8 µg/mL | MIC (Pseudomonas aeruginosa [8]; Pseudomonas aeruginosa CDC 241, IMP/OXA): >8 µg/mL | MIC (Pseudomonas aeruginosa [8]; Pseudomonas aeruginosa CDC 246, NDM/OXA): >8 µg/mL | MIC (Pseudomonas aeruginosa [8]; Pseudomonas aeruginosa CDC 250, NDM/OXA): >8 µg/mL | MIC (Pseudomonas aeruginosa [8]; Pseudomonas aeruginosa CDC 356, KPC): >8 µg/mL | MIC (Pseudomonas aeruginosa [8]; Pseudomonas aeruginosa CDC 439, IMP): >8 µg/mL | MIC (Pseudomonas aeruginosa [8]; Pseudomonas aeruginosa CDC 444, VIM): >8 µg/mL | MIC (Pseudomonas aeruginosa [8]; Pseudomonas aeruginosa CDC 457, VIM): >8 µg/mL | MIC (Pseudomonas aeruginosa [8]; Pseudomonas aeruginosa CDC 516, KPC/AmpC): >8 µg/mL | MIC (Pseudomonas aeruginosa [8]; Pseudomonas aeruginosa CDC 518, KPC/AmpC): >8 µg/mL
